The values below are quoted from earlier work in patent publication US20040087564A1, “Delivery composition and method” (priority 2002, published 2004).

Turning to `C[C@]12CC[C@H]3[C@@H](CCC4=CC(=O)CC[C@@]43C)[C@@H]1CC[C@@H]2O` [testosterone], under “in rabbits”, the “true testosterone disposition half-life” value was roughly 15 min. In addition, the testosterone clearance (male rabbit, Bourget et al., Steroids 43:225-233 (1984)) is 29.2 mL/min/kg.
